Where “and” joins values, the source holds several entries; their conditions need not be identical. Identical values can stand only once.
Assays:
[1] = molecular target: T1, 14-3-3β/CFTRpS753pS768 complex (Homo sapiens, UniProt P13569+P31946); assay: FP assay, 14-3-3β titration at constant compound concentration (apparent KD); format: binding
T1 construct: His6 (cleaved yes); made in house; peptide synthetic
Description: FC-A (100 µM) was added as a positive control and DMSO as the negative control. […] Background polarization was subtracted from all values, n = 3 technical replicates. […] Source data are provided as a Source Data file. […]
The FITC-labeled peptides were dissolved in FP buffer (10 mM HEPES pH 7.4, 150 mM NaCl, 0.1% Tween20, 1 mg/mL BSA) to a final concentration of 100 nM or 10 nM. […] The dilution series were made in 384 Corning Black Round Bottom well plates and their polarization was measured with a Tecan Infinite F500 plate reader (ex. = 485 nm, em. = 535 nm). The method of fitting of the curves was: “log(agonist) vs. response – Variable slope (four parameters)” from GraphPad Prism. The equation is Y = Bottom + (Top-Bottom)/(1 + 10^((LogEC50-X)*HillSlope)).
from the hit validation library.
f the compound, 100 µM FC-A, or both compound and FC-A, 100 µM each. Background polarization was subtracted f
rom all values, n=3 technical replicates.
Source data are provided as a Source Data file.

[2] = molecular target: T2, F508del-CFTR in BHK cells (Homo sapiens, UniProt P13569, DEL508-508); assay: FLIPR membrane potential (FMP) assay; format: cell-based, hamster; settings: for FMP assay signal (Fig5b) / FMP assay signal (Fig5c): individual replicates
T2 construct: expressed in transfected cells; host or cells: baby hamster kidney (BHK) cells
Description: Twelve (12) validated hit compounds from the initial screening and focused validation library were tested for their effect on F508del-CFTR trafficking. Baby hamster kidney (BHK) cells expressing 3HA-tagged F508del-CFTR were treated for 24 h with 10 μM compound. After fixation of the cells, a combination of mouse monoclonal anti-HA antibody and anti-mouse IgG conjugated with FITC was used to detect F508del-CFTR that had trafficked to the plasma membrane as described previously. […] Additionally, a fluorescence imaging plate reader (FLIPR) Membrane Potential (FMP) assay was performed. This assay measures real-time membrane potential changes associated with ion channel activation and ion transporter proteins. F508del-CFTR expressing BHK cells were incubated for 24 h with 20 μM compound before treatment with the potentiator genistein, FMP dye, and activator forskolin. The fluorescence intensity is thus a measure for the function of the CFTR protein in the plasma membrane of these cells. The F508del-CFTR corrector VX-809 (lumacaftor) and the triple combination Trikafta® were used as positive controls in this assay. […] Another cellular assay was performed with the Ussing Chamber, which detects and quantifies transport of ions across epithelial tissue. F508del-CFTR expressing cystic fibrosis epithelial (CFBE) cells were treated for 18 h with 20 μM CY007424. After forskolin and genistein stimulation, the short-circuit current of the cells was measured.
Fig. 5 Cellular activity of macrocycles stabilizing the 14-3-3/CFTR PPI. a Surface expression of 3HA-tagged F508del-CFTR in BHK cells incubated for 24 h with 10 μM compound and treated with mouse monoclonal anti-HA antibody and anti-mouse IgG conjugated with FITC (n = 4 or n = 3 biological replicates, bars represent the mean). b, c FLIPR Membrane Potential (FMP) assay of F508del-CFTR expressing BHK cells treated for 24 h with the macrocycles (b, n = 6 biological replicates, bars represent the mean) or with CY007424 and/or VX-809 or Trikafta®, with and without CFTR inhibitor INH172 (c, n = 4 biological replicates, bars represent the mean). d Using chamber experiment of F508del-CFTR expressing CFBE cells treated for 18 h with CY007424, VX-809, or Trikafta® or in combinations. CFTR activity is assayed by measurement of short-circuit current of cells after stimulation by forskolin and the potentiator genistein (n = 3 or n = 6 biological replicates, bars represent the mean). Source data are provided as a Source Data file.
The FLuorescence Imaging Plate Reader (FLIPR) Membrane Potential (FMP) assay is based on the technique developed by Van Goor et al.[30] F508del-CFTR expressing baby hamster kidney (BHK) cells were incubated with the compounds for 24 h at 37 °C. The growth medium was removed from the cells by inverting the plate and FMP dye (Molecular Devices, Part #R8042) including the potentiator genistein (Sigma, G6649) was added back in 70 μl of low Cl^- containing buffer (160 mM NaGluconate, 4.5 mM KCl, 2 mM CaCl2, 1 mM MgCl2, 10 mM D-Glucose, 10 mM HEPES (pH7.4)). The plates were incubated for 5 min at RT before activation of CFTR in the plate reader (SynergyMX) with the addition of 14 µL of FMP dye in low Cl^- buffer containing 6x forskolin (Sigma, F6886) following a 2 min baseline read. Fluorescence intensity was monitored for 5 min following CFTR activation. Reported is the rate of fluorescence intensity change over time.

[3] = CY compound (100 μM), 14-3-3β concentration 119.2 pM
[4] = CY compound (100 μM), 14-3-3β concentration 4.88281e-7 M
[5] = CY compound (100 μM), 14-3-3β concentration 9.76563e-7 M
[6] = CY compound (100 μM), 14-3-3β concentration 1.95313e-6 M
[7] = CY compound (100 μM), 14-3-3β concentration 3.90625e-6 M
[8] = CY compound (100 μM), 14-3-3β concentration 7.8125e-6 M
[9] = CY compound (100 μM), 14-3-3β concentration 1.5625e-5 M
[10] = CY compound (100 μM), 14-3-3β concentration 3.125e-5 M
[11] = CY compound (100 μM), 14-3-3β concentration 6.25e-5 M
[12] = CY compound (100 μM), 14-3-3β concentration 0.000125 M
[13] = CY compound (100 μM), 14-3-3β concentration 0.00025 M
[14] = CY compound (100 μM), 14-3-3β concentration 0.0005 M
[15] = FC-A + CY compound, 14-3-3β concentration 6.10352e-8 M
[16] = FC-A + CY compound, 14-3-3β concentration 1.2207e-7 M
[17] = FC-A + CY compound, 14-3-3β concentration 2.44141e-7 M
[18] = FC-A + CY compound, 14-3-3β concentration 4.88281e-7 M
[19] = FC-A + CY compound, 14-3-3β concentration 9.76563e-7 M
[20] = FC-A + CY compound, 14-3-3β concentration 1.95313e-6 M
[21] = FC-A + CY compound, 14-3-3β concentration 3.90625e-6 M
[22] = FC-A + CY compound, 14-3-3β concentration 7.8125e-6 M
[23] = FC-A + CY compound, 14-3-3β concentration 1.5625e-5 M
[24] = FC-A + CY compound, 14-3-3β concentration 3.125e-5 M
[25] = FC-A + CY compound, 14-3-3β concentration 6.25e-5 M
[26] = FC-A + CY compound, 14-3-3β concentration 0.000125 M
[27] = FC-A + CY compound, 14-3-3β concentration 0.00025 M
[28] = FC-A + CY compound, 14-3-3β concentration 0.0005 M

T1 sequence (P31946 whole entry): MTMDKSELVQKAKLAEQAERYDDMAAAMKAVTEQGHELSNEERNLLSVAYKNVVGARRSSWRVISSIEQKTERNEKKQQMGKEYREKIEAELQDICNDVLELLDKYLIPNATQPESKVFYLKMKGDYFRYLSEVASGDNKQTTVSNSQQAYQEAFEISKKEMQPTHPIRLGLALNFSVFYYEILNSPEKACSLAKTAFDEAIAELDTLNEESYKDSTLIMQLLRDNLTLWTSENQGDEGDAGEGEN
T1 sequence (P13569 747-774 limits assumed): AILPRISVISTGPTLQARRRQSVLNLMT
T2 sequence (P13569 with tags, fused parts or gaps DEL508-508): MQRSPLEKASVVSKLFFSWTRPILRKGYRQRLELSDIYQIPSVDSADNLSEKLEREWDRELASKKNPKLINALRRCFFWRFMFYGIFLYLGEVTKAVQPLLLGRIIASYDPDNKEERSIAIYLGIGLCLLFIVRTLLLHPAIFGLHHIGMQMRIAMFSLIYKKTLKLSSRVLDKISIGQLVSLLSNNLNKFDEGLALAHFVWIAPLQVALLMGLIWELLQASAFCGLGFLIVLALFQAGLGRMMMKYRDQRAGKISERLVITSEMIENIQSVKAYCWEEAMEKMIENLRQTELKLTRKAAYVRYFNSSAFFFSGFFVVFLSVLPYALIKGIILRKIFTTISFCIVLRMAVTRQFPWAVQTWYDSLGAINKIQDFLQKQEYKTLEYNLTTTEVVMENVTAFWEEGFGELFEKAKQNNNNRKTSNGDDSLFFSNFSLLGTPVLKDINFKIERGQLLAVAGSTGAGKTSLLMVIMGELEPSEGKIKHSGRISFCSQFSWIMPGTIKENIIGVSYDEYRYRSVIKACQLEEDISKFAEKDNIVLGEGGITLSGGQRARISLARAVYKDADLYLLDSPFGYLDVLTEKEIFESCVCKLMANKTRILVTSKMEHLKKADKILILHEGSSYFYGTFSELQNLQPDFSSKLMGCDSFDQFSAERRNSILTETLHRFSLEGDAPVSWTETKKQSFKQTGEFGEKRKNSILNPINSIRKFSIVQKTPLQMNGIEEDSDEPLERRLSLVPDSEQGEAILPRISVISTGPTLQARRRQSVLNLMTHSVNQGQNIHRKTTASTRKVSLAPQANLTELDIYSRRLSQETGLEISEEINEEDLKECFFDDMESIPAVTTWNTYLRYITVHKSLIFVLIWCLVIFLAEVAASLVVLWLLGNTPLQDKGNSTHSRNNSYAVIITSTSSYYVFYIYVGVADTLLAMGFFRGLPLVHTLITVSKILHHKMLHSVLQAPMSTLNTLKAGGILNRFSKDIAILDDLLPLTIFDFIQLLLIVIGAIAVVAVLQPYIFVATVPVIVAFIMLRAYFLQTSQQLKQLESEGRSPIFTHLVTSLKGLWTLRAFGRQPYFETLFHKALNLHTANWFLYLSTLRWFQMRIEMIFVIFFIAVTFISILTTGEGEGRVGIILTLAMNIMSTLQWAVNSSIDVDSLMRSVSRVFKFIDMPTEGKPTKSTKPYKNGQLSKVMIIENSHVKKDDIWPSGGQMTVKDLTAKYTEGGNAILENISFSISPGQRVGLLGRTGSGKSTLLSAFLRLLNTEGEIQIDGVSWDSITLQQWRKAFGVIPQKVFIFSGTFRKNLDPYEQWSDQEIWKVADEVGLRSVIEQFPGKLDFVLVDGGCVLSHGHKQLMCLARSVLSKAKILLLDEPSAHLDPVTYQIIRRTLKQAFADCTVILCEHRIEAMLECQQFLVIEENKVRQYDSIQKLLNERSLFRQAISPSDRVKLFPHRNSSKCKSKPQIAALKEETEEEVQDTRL

SMILES	Fluorescence polarization signal, 14-3-3β titration [1, 3]	Fluorescence polarization signal, 14-3-3β titration [1, 4]	Fluorescence polarization signal, 14-3-3β titration [1, 5]	Fluorescence polarization signal, 14-3-3β titration [1, 6]	Fluorescence polarization signal, 14-3-3β titration [1, 7]	Fluorescence polarization signal, 14-3-3β titration [1, 8]	Fluorescence polarization signal, 14-3-3β titration [1, 9]	Fluorescence polarization signal, 14-3-3β titration [1, 10]	Fluorescence polarization signal, 14-3-3β titration [1, 11]	Fluorescence polarization signal, 14-3-3β titration [1, 12]	Fluorescence polarization signal, 14-3-3β titration [1, 13]	Fluorescence polarization signal, 14-3-3β titration [1, 14]	Fluorescence polarization signal, 14-3-3β titration [1, 15]	Fluorescence polarization signal, 14-3-3β titration [1, 16]	Fluorescence polarization signal, 14-3-3β titration [1, 17]	Fluorescence polarization signal, 14-3-3β titration [1, 18]	Fluorescence polarization signal, 14-3-3β titration [1, 19]	Fluorescence polarization signal, 14-3-3β titration [1, 20]	Fluorescence polarization signal, 14-3-3β titration [1, 21]	FMP assay signal (Fig5b) [2]	further results
N=C(N)NCCCC1NC(=O)C(CCCCN)NCc2ccccc2Sc2ccccc2CNC(=O)C(Cc2ccc(O)cc2)NC1=O (stereo not shown) [CY001951]	-2.333	15.6667 and 13.6667	27.6667 and 26.6667 and 29.6667	40.6667 and 36.6667	51.6667 and 49.6667 and 46.6667	63.6667 and 58.6667 and 54.6667	72.6667 and 68.6667 and 66.6667	82.6667 and 80.6667	93.6667 and 92.6667 and 96.6667	115.667 and 110.667 and 114.667	126.667 and 124.667 and 128.667	148.667 and 147.667	10.3333 and 8.333	16.3333 and 18.3333 and 15.3333	30.3333 and 31.3333 and 29.3333	47.3333 and 45.3333 and 44.3333	71.3333 and 70.3333 and 66.3333	93.3333 and 85.3333	110.333 and 108.333 and 107.333	112.821 and 82.214 and 93.607 and 85.25 and 102.571 and 92.764	Fluorescence polarization signal, 14-3-3β titration ([1]; CY compound (100 μM), 14-3-3β concentration 2.44141e-7 M): 10.6667 and 8.667; Fluorescence polarization signal, 14-3-3β titration ([1]; FC-A + CY compound, 14-3-3β concentration 1.52588e-8 M): 4.333 and 2.333 and 3.333; Fluorescence polarization signal, 14-3-3β titration [1, 22]: 119.333 and 118.333 and 122.333; Fluorescence polarization signal, 14-3-3β titration [1, 23]: 129.333 and 131.333 and 128.333; Fluorescence polarization signal, 14-3-3β titration [1, 24]: 139.333 and 142.333 and 140.333; Fluorescence polarization signal, 14-3-3β titration [1, 25]: 148.333 and 150.333; Fluorescence polarization signal, 14-3-3β titration [1, 26]: 156.333 and 152.333; Fluorescence polarization signal, 14-3-3β titration [1, 27]: 161.333 and 163.333 and 160.333; Fluorescence polarization signal, 14-3-3β titration [1, 28]: 171.333 and 173.333
NCCCCC1NCc2ccccc2Sc2ccccc2CNC(=O)C(Cc2cccc(Cl)c2)NC(=O)C(Cc2ccc(O)cc2)NC1=O (stereo not shown) [CY007288]																				56.536 and 49 and 51.321 and 53.964 and 53 and 52.964	
NCCCC1NCc2ccccc2Sc2ccccc2CNC(=O)C(Cc2c[nH]c3ccccc23)NC(=O)C(Cc2ccccc2)NC1=O (stereo not shown) [CY007345]																				99.75 and 93 and 100.071 and 96.107 and 84.214 and 89.179	
N=C(N)NCCCC1NCc2ccccc2Sc2ccccc2CNC(=O)C(Cc2ccc(O)cc2)NC(=O)C(CCCN)NC1=O (stereo not shown) [CY007424]																				405.536 and 378.214 and 384.321 and 349.393 and 433.679 and 385.071	stabilization factor (increase of apparent affinity of CFTR peptide to 14-3-3) ([1]; 100 μM compound, vs […] μM without compound): more than 300 x; CFTR function (FMP assay) ([2]; BHK cells, 24 h, 20 μM compound, genistein, forskolin): clear corrector function; FMP assay signal (Fig5c) ([2]; Compound alone): 416.179 and 423.464 and 390.429 and 379.429; FMP assay signal (Fig5c) ([2]; With CFTR-inh172): 23.036 and 3.107 and 4.393 and -13.071
N=C(N)NCCCC1NC(=O)C(CCC(N)=O)NC(=O)C(CCCNC(=N)N)NC(=O)C2CCCN2Cc2cccc(c2)-c2ccccc2CNC1=O (stereo not shown) [CY007455]	1.333	8.333 and 7.333	12.3333 and 8.333 and 11.3333	20.3333 and 17.3333 and 14.3333	27.3333 and 24.3333 and 22.3333	38.3333 and 32.3333 and 35.3333	51.3333 and 50.3333 and 48.3333	68.3333 and 69.3333 and 65.3333	92.3333 and 88.3333 and 91.3333	110.333 and 109.333	128.333 and 124.333 and 127.333	152.333 and 149.333	5 and 6 and 9	9 and 7	10 and 13 and 15	23 and 24 and 20	41 and 39 and 35	58 and 54 and 52	74 and 73 and 71	35.786 and 28.786 and 56.25 and 44.357 and 64.929 and 56.893	Fluorescence polarization signal, 14-3-3β titration ([1]; FC-A + CY compound, 14-3-3β concentration 119.2 pM): 2 and 1; Fluorescence polarization signal, 14-3-3β titration [1, 22]: 91 and 96 and 92; Fluorescence polarization signal, 14-3-3β titration [1, 23]: 115 and 114; Fluorescence polarization signal, 14-3-3β titration [1, 24]: 128 and 129 and 126; Fluorescence polarization signal, 14-3-3β titration [1, 25]: 141 and 144; Fluorescence polarization signal, 14-3-3β titration [1, 26]: 157 and 153 and 158; Fluorescence polarization signal, 14-3-3β titration [1, 27]: 160 and 164; Fluorescence polarization signal, 14-3-3β titration [1, 28]: 175 and 174

From article PMC9226124, “Macrocycle-stabilization of its interaction with 14-3-3 increases plasma membrane localization and activity of CFTR” (Nature Communications, 2022)
